In brackets after ≈: the same amount, converted by molar mass.
Experiments:
physchem = conditions: water
[1] = test system: carrageenin-induced rat foot edema; test: standard carrageenin-induced rat foot edema test, oral; type: in vivo; conditions: 32 mg./kg. oral (gavage), carrageenin-injected hind paw, 3 h after carrageenin, vs vehicle control, read-out: % Inhibition of edema formation
Method: In this test, anti-inflammatory activity is determined as the percent inhibition of edema formation in the hind paw of male albino rats (weighing 150-190 g.) in response to a sub-plantar injection of carrageenin. The carrageenin is injected as a 1% aqueous suspension (0.05 ml.) one hour after oral administration of the drug, which is normally given in the form of an aqueous solution. Edema formation is then assessed by measuring the volume of the injected paw initially as well as three hours after the carrageenin injection. The increase in volume three hours after carrageenin injection constitutes the individual response. Compounds are considered active if the difference in response between the drug-treated animals (six rats/group) and a control group receiving the vehicle alone is significant on comparison with the results afforded by a standard compound like phenylbutazone at 33 mg./kg., via the oral route of administration.
The following oxyethyl oxicam final products of Examples 1B, 1C and 5, respectively, were tested for anti-inflammatory activity in rats, using the standard rat foot edema test, according to the general procedure described by C. A. Winter et al., as first reported in the Proceedings of the Society for Experimental Biology and Medicine, Vol. 111, p. 544 (1962).

[2] = compared with piroxicam at an equivalent dose level and other NSAI agents

solubility (physchem)	SMILES	inhibition at 32 mg/kg [1]	oral absorption potential, comparison in words [2]
0.3 mg/mL (≈ 1.45 mM)	CC(C)Cc1ccc(C(C)C(=O)O)cc1 (centres unmarked) [Ibuprofen]		
0.7 mg/mL (≈ 1.96 mM)	COc1ccc2c(c1)c(CC(=O)O)c(C)n2C(=O)c1ccc(Cl)cc1 [Indomethacin]		
470 mg/mL (≈ 1250 mM)	CN1C(C(=O)Nc2ccccn2)=C(OCCO)c2ccccc2S1(=O)=O [Product of Example 1B, 4-(2-hydroxyethyloxy)-2-methyl-N-(2-pyridinyl)-2H-1,2-benzothiazine-3-carboxamide 1,1-dioxide]	48%	highest oral absorption potential seen in the series of compounds tested
	CN1C(C(=O)Nc2cccc[n+]2CCO)=C([O-])c2ccccc2S1(=O)=O [Product of Example 1C, N-[1-(2-hydroxyethyl)-2-pyridinium]-2-methyl-2H-1,2-benzothiazine-3-carboxamide 1,1-dioxide 4-enolate]	16%	
	Cc1cccc(NC(=O)C2=C(OCCO)c3ccccc3S(=O)(=O)N2C)n1 [Product of Example 5, 4-(2-hydroxyethyloxy)-2-methyl-N-(6-methyl-2-pyridinyl)-2H-1,2-benzothiazine-3-carboxamide 1,1-dioxide]	13%	

SMILES	solubility (physchem)	inhibition at 32 mg/kg [1]	oral absorption potential, comparison in words [2]
CN1C(C(=O)Nc2ccccn2)=C(O)c2ccccc2S1(=O)=O [Piroxicam, 4-hydroxy-2-methyl-N-(2-pyridinyl)-2H-1,2-benzothiazine-3-carboxamide 1,1-dioxide]	26.5 mg/mL (≈ 80 mM)		
